Measurements as given in US9315522B2, “Antibacterial compounds” (JANSSEN SCIENCES IRELAND UC, priority 2012, dated 2016).
≈ marks a conversion by molar mass, not a printed value.

Tests used:
[1] = target: T1, S. aureus ATCC 29213 FabI (Staphylococcus aureus, UniProt Q6GI75); assay: Staphylococcus aureus FabI enzyme inhibition assay; format: biochemical; conditions: read-out: FabI (300.235) IC50 (converted)
T1 sequence (Q6GI75 1-256): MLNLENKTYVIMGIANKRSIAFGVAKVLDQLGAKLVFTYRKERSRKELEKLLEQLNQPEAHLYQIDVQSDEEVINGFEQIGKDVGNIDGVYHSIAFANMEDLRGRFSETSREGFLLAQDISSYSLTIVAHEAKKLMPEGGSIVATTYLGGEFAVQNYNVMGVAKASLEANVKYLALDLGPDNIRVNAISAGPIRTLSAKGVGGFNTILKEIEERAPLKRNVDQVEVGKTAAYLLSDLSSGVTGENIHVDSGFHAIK
Description: Y.1 FabI Enzyme Inhibition: Staphylococcus aureus FabI Enzyme Inhibition Assay
FabI enzyme inhibition assays were carried out in half-area, 384-well microtitre plates. Compounds were evaluated in 40-μl assay mixtures containing 100 mM NaADA, pH 6.5 (ADA=N-[2-acetamido]-2iminodiacetic acid), 250 μM crotonoyl-CoA, 625 μM NADH and 50 μg/ml S. aureus ATCC 29213 FabI. Inhibitors were typically varied over the range of 50 to 0.39 μM. The reaction mixtures were incubated for 30 minutes at room temperature and the reaction was stopped by adding 200 mM Tris buffer (pH 9.0) to create a pH-shift. The consumption of NADH was monitored by measuring the change in absorbance at […]. By comparing sample readings to those of negative (absence of compound) and positive (absence of enzyme) controls, the percent inhibition of enzymatic activity of the compounds was determined A best-fit curve is fitted by a minimum of squares method. From this an IC50-value (expressed in μg/ml), resulting in 50% inhibition of enzymatic activity, was obtained.

[2] = Cytotoxicity MTT assay (HELAM); format: cell-based, Human; conditions: human, HelaM cells, read-out: HELAM (222.125) CC50
Description: Cytotoxicity of the compounds was evaluated using the MTT assay. Human HelaM cells grown in 96-well plates were exposed to serial dilutions of the tested compounds (final volume of 0.2 ml) and incubated for 72 hours at 37° C. and 5% CO2. Inhibitors are typically varied over the range of 25 to 0.8 μM. The final DMSO concentration in the assay is 0.5%. MTT (3-(4,5-Dimethylthiazol-2-yl)-2,5-diphenyltetrazolium bromide, a tetrazole) was added and reduced to purple formazan only in living cells. Solubilization of the formazan crystals was achieved by adding 100 μl 2-propanol. Cell viability was determined by measuring the absorbance of the reduced formazan, giving a purple color, at 540 nm and 690 nm. The absorbance measured at 690 nm was automatically subtracted from the absorbance at 540 nm, to eliminate the effects of non-specific absorption. The percent cytotoxicity achieved by the compounds was calculated according to standard methods. Cytotoxicity is reported as CC50, the concentration that causes a 50% reduction in cell viability.
The results are depicted in the table(s) below (HELAM).

[3] = tested on: Staphylococcus aureus ATCC 29213; assay: Antibacterial susceptibility testing, IC90 determination (STA); format: cell-based; conditions: resazurin; for IC90: Staphylococcus aureus, ATCC29213, Staphylococcus aureus ATCC 29213, broth microdilution, read-out: STA (361.159) IC90
Description: (§1) The following bacteria were used: Staphylococcus aureus ATCC 29213, methicillin-resistant Staphylococcus aureus (MRSA) ATCC 700788 and Escherichia coli ATCC 35218. The bacteria used in this study were grown overnight in flasks containing 100 ml Mueller-Hinton broth (Difco cat. nr. 0757-17) in sterile de-ionized water, with shaking, at 37° C. Stocks were store at −70° C. until use.
(§2) Bacteria were incubated on a tryptic soy agar plate containing 5% sheep blood (Becton Dickinson cat. nr. 254053) for 18-24 hours at 35° C. in aerobic conditions (first passage). For the second passage, fresh Mueller-Hinton broth is inoculated with 5-10 colonies and grown overnight at 35° C. until turbidity (reaching log-phase) in aerobic conditions is reached. The bacterial suspension is then adjusted to 0.5 McFarland density and further diluted 1:100 in Mueller Hinton broth medium. This is used as inoculum.
The result(s) are depicted the table below (for STA ATCC 29213).
(§3) MIC assays were performed by the broth microdilution method in a 96-well format (flat-bottom microtitre plates) with a final volume of 0.1 ml Mueller Hinton broth containing two-fold serial dilutions of compounds and inoculated with 5×10^5 CFU/ml of bacteria (standard inoculum size according to CLSI guidelines). Inhibitors are typically varied over the range of 63 to 0.49 μM. The final DMSO concentration in the assay was 1.25% (maximum tolerable DMSO concentration=6%). In the assays where the effect of human serum on the activity of the compounds against S. aureus was tested, human serum was added at a final concentration of 10%. The plates were incubated at 35° C. for 16-20 hours. At the end of incubation the bacterial growth was quantified fluorometrically. For this, resazurin was added to all wells and the plates were re-incubated. The incubation time is dependent on the type of bacteria. A change in color from blue to pink indicated the growth of bacteria. The fluorescence was read in computer-controlled fluorometer (Fluoroskan Ascent FL, Labsystems) at an excitation wavelength 540 nm and an emission wavelength of 590 nm. The % growth inhibition achieved by the compounds was calculated according to standard methods. The IC90 (expressed in μg/ml) was defined as the 90% inhibitory concentration for bacterial growth. A panel of reference compounds were simultaneously tested for QC approval.

S. aureus = assay: Antibacterial susceptibility testing, IC90 determination with 10% human serum (STA + 10% HS); format: cell-based, Staphylococcus aureus; conditions: Staphylococcus aureus, human serum at final concentration of 10%, read-out: STA + 10% HS (361.169) IC90
Description: as §1, §2, §3
The results are depicted in the table(s) below (STA+10% HS).

IC50 [1] | melting point | IC90 [3] | IC90 (S. aureus) | STA (361.159) IC90 ([3]; Staphylococcus aureus ATCC 29213, broth microdilution) | Compound | CC50 at 72 h [2]
1.45 µM | > 250 °C | 0.17 mg/L (≈ 0.368 µM) | 0.2 mg/L | – | O=C1Nc2ncc(/C=C/C(=O)N3CC4C=C(c5ccsc5)CC4C3)cc2CN2CCOCC12 (stereo not drawn) [compound 70] | > 11.6 mg/L
1.29 µM | 215 to 230 °C | < 0.25 mg/L | < 0.25 mg/L | – | CC(=O)N1CCN2Cc3cc(/C=C/C(=O)N4CC5C=C(c6cccs6)CC5C4)cnc3NC(=O)C2C1 (stereo not drawn) [compound 75] | > 12.7 mg/L
1.23 µM | 278.12 °C | 0.25 mg/L (≈ 0.531 µM) | 0.41 mg/L | – | O=C1Nc2ncc(/C=C/C(=O)N3CC4C=C(c5ccccc5)CC4C3)cc2C(=O)N2CCOCC12 (stereo not drawn) [compound 76] | > 11.8 mg/L
1.18 µM | 214 °C | 0.26 mg/L (≈ 0.55 µM) | 0.59 mg/L | – | O=C1Nc2ncc(/C=C/C(=O)N3CC4C=C(c5ccccc5)CC4C3)cc2CN2CCSCC12 (stereo not drawn) [compound 77] | 1.2 mg/L (≈ 2.54 µM)
1.07 µM | 242 °C | – | < 0.22 mg/L | 0.31 mg/L | O=C1Nc2ncc(/C=C/C(=O)N3CC4C=C(c5ccccc5)CC4C3)cc2CN2CCOCC12 (stereo not drawn) [compound 78] | > 11.5 mg/L
0.743 µM | 212 °C | 0.42 mg/L (≈ 0.918 µM) | 0.38 mg/L | – | O=C1Nc2ncc(/C=C/C(=O)N3CC4C=C(c5ccncc5)CC4C3)cc2CN2CCOCC12 (stereo not drawn) [compound 80] | > 11.5 mg/L
0.955 µM | 226 °C | 1.67 mg/L (≈ 3.63 µM) | 1.62 mg/L | – | Cn1nccc1C1=CC2CN(C(=O)/C=C/c3cnc4c(c3)CN3CCOCC3C(=O)N4)CC2C1 (stereo not drawn) [compound 85] | > 11.6 mg/L
0.832 µM | 214.9 to 232.7 °C | < 0.21 mg/L | < 0.21 mg/L | – | O=C1CC2CCCCN2Cc2cc(/C=C/C(=O)N3C[C@@H]4CC(c5ccccc5)=C[C@@H]4C3)cnc2N1 (stereo partly drawn) [compound 90] | 4.4 mg/L (≈ 9.39 µM)

The remaining lines, values behind:

Compound | IC50 [1] | melting point | IC90 [3] | IC90 (S. aureus) | STA (361.159) IC90 ([3]; Staphylococcus aureus ATCC 29213, broth microdilution) | CC50 at 72 h [2]
O=C1CNCc2cc(/C=C/C(=O)N3CC4C=C(c5ccncc5)CC4C3)cnc2N1 (stereo not drawn) [compound 52] | 0.971 µM | > 260 °C | 0.37 mg/L (≈ 0.922 µM) | 0.35 mg/L | – | > 10.1 mg/L
O=C1COCc2cc(/C=C/C(=O)N3CC4C=C(c5ccncc5)CC4C3)cnc2N1 (stereo not drawn) [compound 54] | 1.02 µM | 154 °C | 0.38 mg/L (≈ 0.944 µM) | 0.35 mg/L | – | > 10.1 mg/L
O=C1Nc2ncc(/C=C/C(=O)N3CC4C=C(c5ccncc5)CC4C3)cc2CO1 (stereo not drawn) [compound 55] | 0.927 µM | 156 °C | 0.76 mg/L (≈ 1.96 µM) | 0.71 mg/L | – | > 9.76 mg/L
Cn1nccc1C1=CC2CN(C(=O)/C=C/c3cnc4c(c3)COCC(=O)N4)CC2C1 (stereo not drawn) [compound 56] | 1.18 µM | 149 °C | 1.51 mg/L (≈ 3.72 µM) | 1.44 mg/L | – | > 10.2 mg/L
Cn1nccc1C1=CC2CN(C(=O)/C=C/c3cnc4c(c3)CNCC(=O)N4)CC2C1 (stereo not drawn) [compound 57] | 0.939 µM | 228 °C | 1.54 mg/L (≈ 3.81 µM) | 1.52 mg/L | – | > 10.2 mg/L
CN1CC(=O)Nc2ncc(/C=C/C(=O)N3C[C@@H]4CN(c5ccccc5)C[C@@H]4C3)cc2C1 [compound 58] | 1.7 µM | 178.9 to 179.8 °C | 3.39 mg/L (≈ 8.12 µM) | 3.13 mg/L | – | > 10.5 mg/L
COc1ccccc1N1C[C@H]2CN(C(=O)/C=C/c3cnc4c(c3)CN(C)CC(=O)N4)C[C@H]2C1 [compound 59] | 2.23 µM | 114 °C | 3.39 mg/L (≈ 7.57 µM) | 3.17 mg/L | – | > 11.2 mg/L
CC(C)C1Oc2cc(/C=C/C(=O)N3CC4C=C(c5ccccc5)CC4C3)cnc2NC1=O (stereo not drawn) [compound 63] | 1.42 µM | 224.9 °C | < 0.21 mg/L | 0.36 mg/L | – | > 10.8 mg/L
CC(C)C1Oc2cc(/C=C/C(=O)N3CC4C=C(c5nccs5)CC4C3)cnc2NC1=O (stereo not drawn) [compound 64] | 0.825 µM | 223.55 °C | < 0.21 mg/L | < 0.21 mg/L | – | > 11 mg/L
CC(C)C1Oc2cc(/C=C/C(=O)N3CC4C=C(c5ccncc5)CC4C3)cnc2NC1=O (stereo not drawn) [compound 65] | 0.859 µM | 113.11 °C | < 0.21 mg/L | < 0.21 mg/L | – | > 10.8 mg/L
O=C1CNC(=O)c2cc(/C=C/C(=O)N3CC4C=C(c5ccccc5)CC4C3)cnc2N1 (stereo not drawn) [compound 66] | 0.651 µM | 226 °C | 0.76 mg/L (≈ 1.83 µM) | 0.79 mg/L | – | > 10.4 mg/L
CN1CCN2C(=O)c3cc(/C=C/C(=O)N4CC5C=C(c6ccccc6)CC5C4)cnc3NC(=O)C2C1 (stereo not drawn) [compound 82] | 0.993 µM | > 270 °C | 0.45 mg/L (≈ 0.931 µM) | 0.43 mg/L | – | > 12.1 mg/L
CC(=O)N1CCN2C(=O)c3cc(/C=C/C(=O)N4CC5C=C(c6ccccc6)CC5C4)cnc3NC(=O)C2C1 (stereo not drawn) [compound 83] | 1.23 µM | 262 to 264 °C | 0.48 mg/L (≈ 0.938 µM) | 0.47 mg/L | – | > 12.9 mg/L
